In patent publication US11325938B2, “CD73 inhibitors” (ORIC Pharmaceuticals, Inc., priority 2018, dated 2022):

Molecular target: CD73 (Homo sapiens (Human), UniProt P21589)
Experiment: Biochemical assay: inhibition of CD73 activity (AMP hydrolysis, Malachite Green readout)
Details: CD73 0.3208 nM, AMP 15 μM, 25 mM Tris-HCl pH 7.4, RT, absorbance 620 nm
In short: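 Phosphate from AMP hydrolysis (15 μM AMP, 10 min, RT) was detected by Malachite Green absorbance to give IC50s. Enzyme at 320 pM was first exposed 15 min to compounds, dosed from 100 μM in ½-log steps, in Tris pH 7.4 buffer with MgCl2, Brij-35 and BSA.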

Sequence of CD73 (P21589 27-574): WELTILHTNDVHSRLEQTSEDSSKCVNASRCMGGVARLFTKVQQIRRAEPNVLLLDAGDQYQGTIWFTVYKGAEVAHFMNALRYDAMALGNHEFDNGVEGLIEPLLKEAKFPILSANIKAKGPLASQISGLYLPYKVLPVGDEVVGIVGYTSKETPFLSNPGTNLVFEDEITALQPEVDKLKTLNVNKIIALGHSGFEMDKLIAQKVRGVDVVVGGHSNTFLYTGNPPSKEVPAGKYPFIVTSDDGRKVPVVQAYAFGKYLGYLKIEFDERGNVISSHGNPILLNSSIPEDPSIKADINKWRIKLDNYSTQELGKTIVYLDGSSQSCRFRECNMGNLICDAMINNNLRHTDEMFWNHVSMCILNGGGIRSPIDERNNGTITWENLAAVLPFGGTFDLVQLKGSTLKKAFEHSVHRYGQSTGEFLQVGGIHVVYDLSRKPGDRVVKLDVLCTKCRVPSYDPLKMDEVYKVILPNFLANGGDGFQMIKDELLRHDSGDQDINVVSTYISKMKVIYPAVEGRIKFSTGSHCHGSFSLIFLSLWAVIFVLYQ

Structure (SMILES) | IC50 [nM]
COC[C@@H](OC[C@H]1O[C@@H](n2nnc3c(NC4CCCC4)cc(Cl)nc32)[C@H](O)[C@@H]1O)P(=O)(O)O [Example 161, ((S)-1-(((2R,3S,4R,5R)-5-(5-chloro-7-(cyclopentylamino)-3H-[1,2,3]triazolo[4,5-b]pyridin-3-yl)-3,4-dihydroxytetrahydrofuran-2-yl)methoxy)-2-methoxyethyl)phosphonic acid] | ≤ 100
CCOCC(CO)(OC[C@H]1O[C@@H](n2ncc3c(NC4CCCC4)nc(Cl)nc32)[C@H](O)[C@@H]1O)P(=O)(O)O (mixture of isomers) [Example 169, rac-(2-(((2R,3S,4R,5R)-5-(6-chloro-4-(cyclopentylamino)-1H-pyrazolo[3,4-d]pyrimidin-1-yl)-3,4-dihydroxytetrahydrofuran-2-yl)methoxy)-1-ethoxy-3-hydroxypropan-2-yl)phosphonic acid] | ≤ 100
O=P(O)(O)C(CO)(COC1CCC1)OC[C@H]1O[C@@H](n2ncc3c(NC4CCCC4)nc(Cl)nc32)[C@H](O)[C@@H]1O (mixture of isomers) [Example 163, rac-(2-(((2R,3S,4R,5R)-5-(6-chloro-4-(cyclopentylamino)-1H-pyrazolo[3,4-d]pyrimidin-1-yl)-3,4-dihydroxytetrahydrofuran-2-yl)methoxy)-1-cyclobutoxy-3-hydroxypropan-2-yl)phosphonic acid] | ≤ 100
C[C@@H]1CCC[C@@H]1Nc1nc(Cl)nc2c1cnn2[C@@H]1O[C@H](COC(CO)(CO)P(=O)(O)O)[C@@H](O)[C@H]1O (racemic) [Example 228, rac-(2-(((2R,3S,4R,5R)-5-(6-chloro-4-(((1S,2R)-2-methylcyclopentyl)amino)-1H-pyrazolo[3,4-d]pyrimidin-1-yl)-3,4-dihydroxytetrahydrofuran-2-yl)methoxy)-1,3-dihydroxypropan-2-yl)phosphonic acid] | ≤ 100
O=P(O)(O)C(CO)OC[C@H]1O[C@@H](n2ncc3c(NC4CCCC4)nc(Cl)nc32)[C@H](O)[C@@H]1O (stereo partly drawn) [Example 13, (1-(((2R,3S,4R,5R)-5-(6-chloro-4-(cyclopentylamino)-1H-pyrazolo[3,4-d]pyrimidin-1-yl)-3,4-dihydroxytetrahydrofuran-2-yl)methxoy)-2-hydroxyethyl)phosphonic acid] | ≤ 100
O=P(O)(O)COC[C@H]1O[C@@H](n2nnc3c(NC4CCCC4)nc(Cl)cc32)[C@H](O)[C@@H]1O [Example 20, ((((2R,3S,4R,5R)-5-(6-chloro-4-(cyclopentylamino)-1H-[1,2,3]triazolo[4,5-c]pyridin-1-yl)-3,4-dihydroxytetrahydrofuran-2-yl)methoxy)methyl)phosphonic acid] | 100 to 1000
O=P(O)(O)C(CO)(CC1COC1)OC[C@H]1O[C@@H](n2ncc3c(NC4CCCC4)nc(Cl)nc32)[C@H](O)[C@@H]1O (mixture of isomers) [Example 167, rac-(2-(((2R,3S,4R,5R)-5-(6-chloro-4-(cyclopentylamino)-1H-pyrazolo[3,4-d]pyrimidin-1-yl)-3,4-dihydroxytetrahydrofuran-2-yl)methoxy)-1-hydroxy-3-(oxetan-3-yl)propan-2-yl)phosphonic acid] | ≤ 100
C[C@@](CO)(OC[C@H]1O[C@@H](n2ncc3c(N[C@@H]4CCc5ccc(F)cc54)nc(Cl)nc32)[C@H](O)[C@@H]1O)P(=O)(O)O [Example 99, ((R)-2-(((2R,3S,4R,5R)-5-(6-chloro-4-(((R)-6-fluoro-2,3-dihydro-1H-inden-1-yl)amino)-1H-pyrazolo[3,4-d]pyrimidin-1-yl)-3,4-dihydroxytetrahydrofuran-2-yl)methoxy)-1-hydroxypropan-2-yl)phosphonic acid] | ≤ 100
CC(CO)(OC[C@H]1O[C@@H](n2ncc3c(NC4CCCC4)nc(Cl)nc32)[C@H](O)[C@@H]1O)P(=O)(O)O (stereo partly drawn) [Example 15, (2-(((2R,3S,4R,5R)-5-(6-Chloro-4-(cyclopentylamino)-1H-pyrazolo[3,4-d]pyrimidin-1-yl)-3,4-dihydroxytetrahydrofuran-2-yl)methoxy)-1-hydroxypropan-2-yl)phosphonic acid] | ≤ 100
O=C(O)c1cccc(CC(CO)(OC[C@H]2O[C@@H](n3ncc4c(NC5CCCC5)nc(Cl)nc43)[C@H](O)[C@@H]2O)P(=O)(O)O)c1 (mixture of isomers) [Example 190, rac-3-(2-(((2R,3S,4R,5R)-5-(6-chloro-4-(cyclopentylamino)-1H-pyrazolo[3,4-d]pyrimidin-1-yl)-3,4-dihydroxytetrahydrofuran-2-yl)methoxy)-3-hydroxy-2-phosphonopropyl)benzoic acid] | ≤ 100
O=P(O)(O)C(CO)(COCCO)OC[C@H]1O[C@@H](n2ncc3c(NC4CCCC4)nc(Cl)nc32)[C@H](O)[C@@H]1O (mixture of isomers) [Example 172, rac-(2-(((2R,3S,4R,5R)-5-(6-chloro-4-(cyclopentylamino)-1H-pyrazolo[3,4-d]pyrimidin-1-yl)-3,4-dihydroxytetrahydrofuran-2-yl)methoxy)-1-hydroxy-3-(2-hydroxyethoxy)propan-2-yl)phosphonic acid] | ≤ 100
NC(=O)OCC(CO)(OC[C@H]1O[C@@H](n2ncc3c(NC4CCCC4)nc(Cl)nc32)[C@H](O)[C@@H]1O)P(=O)(O)O (mixture of isomers) [Example 178, rac-(1-(carbamoyloxy)-2-(((2R,3S,4R,5R)-5-(6-chloro-4-(cyclopentylamino)-1H-pyrazolo[3,4-d]pyrimidin-1-yl)-3,4-dihydroxytetrahydrofuran-2-yl)methoxy)-3-hydroxypropan-2-yl)phosphonic acid] | ≤ 100
C[C@@](CO)(OC[C@H]1O[C@@H](n2ncc3c(NC4CCCC4)nc(C#CCO)nc32)[C@H](O)[C@@H]1O)P(=O)(O)O (racemic) [Example 205, rac-((R)-2-(((2R,3S,4R,5R)-5-(4-(cyclopentylamino)-6-(3-hydroxyprop-1-yn-1-yl)-1H-pyrazolo[3,4-d]pyrimidin-1-yl)-3,4-dihydroxytetrahydrofuran-2-yl)methoxy)-1-hydroxypropan-2-yl)phosphonic acid] | ≤ 100

The next lines start with the values.

IC50 [nM] | Structure (SMILES)
≤ 100 | O=P(O)(O)CS(=O)(=O)C[C@H]1O[C@@H](n2nnc3c(NCC4CC4)cc(Cl)nc32)[C@H](O)[C@@H]1O [Example 25, (((((2S,3S,4R,5R)-5-(5-chloro-7-((cyclopropylmethyl)amino)-3H-[1,2,3]triazolo[4,5-b]pyridin-3-yl)-3,4-dihydroxytetrahydrofuran-2-yl)methyl)sulfonyl)methyl)phosphonic acid]
≤ 100 | CSCC(C)(OC[C@H]1O[C@@H](n2ncc3c(NC4CCCC4)nc(Cl)nc32)[C@H](O)[C@@H]1O)P(=O)(O)O (stereo partly drawn) [Example 55, (2-(((2R,3S,4R,5R)-5-(6-Chloro-4-(cyclopentylamino)-1H-pyrazolo[3,4-d]pyrimidin-1-yl)-3,4-dihydroxytetrahydrofuran-2-yl)methoxy)-1-(methylthio)propan-2-yl)phosphonic acid]
≤ 100 | O=P(O)(O)[C@@H](Cc1ccccc1)S(=O)(=O)C[C@H]1O[C@@H](n2ncc3c(NC4CCCC4)nc(Cl)nc32)[C@H](O)[C@@H]1O [Example 10, ((R)-1-((((2S,3S,4R,5R)-5-(6-chloro-4-(cyclopentylamino)-1H-pyrazolo[3,4-d]pyrimidin-1-yl)-3,4-dihydroxytetrahydrofuran-2-yl)methyl)sulfonyl)-2-phenylethyl)phosphonic acid]
≤ 100 | C[C@H](O)[C@H](OC[C@H]1O[C@@H](n2ncc3c(NC4CCCC4)nc(Cl)nc32)[C@H](O)[C@@H]1O)P(=O)(O)O [Example 12, ((1R,2S)-1-(((2R,3S,4R,5R)-5-(6-chloro-4-(cyclopentylamino)-1H-pyrazolo[3,4-d]pyrimidin-1-yl)-3,4-dihydroxytetrahydrofuran-2-yl)methoxy)-2-hydroxypropyl)phosphonic acid]
100 to 1000 | Nc1nc(Cl)nc2c1cnn2[C@@H]1O[C@H](COC(CO)P(=O)(O)O)[C@@H](O)[C@H]1O (stereo partly drawn) [Example 59, (1-(((2R,3S,4R,5R)-5-(4-amino-6-chloro-1H-pyrazolo[3,4-d]pyrimidin-1-yl)-3,4-dihydroxytetrahydrofuran-2-yl)methoxy)-2-hydroxyethyl)phosphonic acid]
≤ 100 | O=P(O)(O)C(CO)OC[C@H]1O[C@@H](n2ncc3c(N[C@H]4CCc5ccccc54)nc(Cl)nc32)[C@H](O)[C@@H]1O (stereo partly drawn) [Example 39, (1-(((2R,3S,4R,5R)-5-(6-chloro-4-(((S)-2,3-dihydro-1H-inden-1-yl)amino)-1H-pyrazolo[3,4-d]pyrimidin-1-yl)-3,4-dihydroxytetrahydrofuran-2-yl)methoxy)-2-hydroxyethyl)phosphonic acid]
≤ 100 | CC(COCCO)(OC[C@H]1O[C@@H](n2ncc3c(NC4CCCC4)nc(Cl)nc32)[C@H](O)[C@@H]1O)P(=O)(O)O (stereo partly drawn) [Example 85, (2-(((2R,3S,4R,5R)-5-(6-Chloro-4-(cyclopentylamino)-1H-pyrazolo[3,4-d]pyrimidin-1-yl)-3,4-dihydroxytetrahydrofuran-2-yl)methoxy)-1-(2-hydroxyethoxy)propan-2-yl)phosphonic acid]
> 1000 | CC(CN1CCOCC1)(OC[C@H]1O[C@@H](n2ncc3c(NC4CCCC4)nc(Cl)nc32)[C@H](O)[C@@H]1O)P(=O)(O)O (stereo partly drawn) [Example 71, (2-(((2R,3S,4R,5R)-5-(6-chloro-4-(cyclopentylamino)-1H-pyrazolo[3,4-d]pyrimidin-1-yl)-3,4-dihydroxytetrahydrofuran-2-yl)methoxy)-1-morpholinopropan-2-yl)phosphonic acid]
≤ 100 | O=P(O)(O)C(CO)OC[C@H]1O[C@@H](n2ncc3c(NC4CCCC4)cc(Cl)nc32)[C@H](O)[C@@H]1O (stereo partly drawn) [Example 57, (1-(((2R,3S,4R,5R)-5-(6-Chloro-4-(cyclopentylamino)-1H-pyrazolo[3,4-b]pyridin-1-yl)-3,4-dihydroxytetrahydrofuran-2-yl)methoxy)-2-hydroxyethyl)phosphonic acid]
